Consider 72 molecules from patent publication US20240254089A1, “MODULATORS OF MAS-RELATED G-PROTEIN RECEPTOR X4 AND RELATED PRODUCTS AND METHODS” (ESCIENT PHARMACEUTICALS, INC., priority 2020, published 2024).

Like-named read-outs stand apart in the source and are kept apart here. Bounds are passed on as bounds.

In the assay the target is T1, human MRGPR X4 (Homo sapiens, UniProt Q96LA9).
T1 construct: expressed in transfected cells
Put plainly: MRGPR X4 antagonist activity, IP-One Gq HTRF assay in stably transfected HEK cells. The format is cell-based. Put shortly:
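IC50 comes from HTRF IP-1 accumulation in stably transfected HEK cells expressing human MRGPR X4. Compounds (10 uM top, 1:3 serial, 10 points) were co-incubated with 10 μM bilirubin, 20 μM deoxycholic acid or 100 μM conjugated bilirubin in LiCl-containing buffer, pH 8, for 1 h at 37 °C plus 30 min at room temperature.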

The mark [1] stands for this setting: versus 20 μM deoxycholic acid agonist, HEK cells expressing human MRGPR X4, read-out: MRGPRX4 Antagonist Activity.

T1 sequence (Q96LA9 whole entry): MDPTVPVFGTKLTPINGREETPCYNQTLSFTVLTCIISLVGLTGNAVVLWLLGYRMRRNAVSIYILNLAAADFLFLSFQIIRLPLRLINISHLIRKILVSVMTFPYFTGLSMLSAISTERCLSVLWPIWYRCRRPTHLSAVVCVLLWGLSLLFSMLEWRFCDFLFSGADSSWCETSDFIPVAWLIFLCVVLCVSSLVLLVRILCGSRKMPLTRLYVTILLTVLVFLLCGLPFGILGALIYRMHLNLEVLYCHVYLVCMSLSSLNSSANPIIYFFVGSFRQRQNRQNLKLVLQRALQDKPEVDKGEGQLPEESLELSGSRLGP

`Cc1ccc(Cn2cc(C(=O)NCCc3ccnn3C)c3ccccc32)cc1` [Compound 187] displayed an IC50 of 0.501 to 1 µM.

`N#Cc1ccc(Cn2cc(C(=O)NCCc3ccc(Cl)c(F)c3)c3ccccc32)cc1` [Compound 188] came in with an IC50 of 0.501 to 1 µM.

`O=C(NCCc1cccnc1C(F)(F)F)c1cn(Cc2ccc(Cl)cc2)c2ccccc12` [Compound 189] showed an IC50 of 0.501 to 1 µM.

For the molecule `O=C(NCCc1ccccc1C(F)(F)F)c1cn(Cc2ccc(Cl)cc2)c2ccccc12` [Compound 190], the IC50 is 0.501 to 1 µM.

Molecule `CC(=O)c1ccc(Cn2cc(C(=O)NCCc3cccnc3)c3ccccc32)cc1` [Compound 191] had an IC50 of 0.501 to 1 µM.

`Cc1ccc(Cn2cc(C(=O)NCCc3nc4ccccc4s3)c3ccccc32)cc1` [Compound 192] registered an IC50 of 0.501 to 1 µM.

With `N#Cc1ccc(Cn2cc(C(=O)NCCc3cccnc3)c3ccccc32)cc1` [Compound 193], the IC50 lay within 0.501 to 1 µM.

Regarding `O=C(NCCc1ccccc1OC(F)(F)F)c1cn(Cc2ccc(Cl)cc2)c2ccccc12` [Compound 194], the IC50 is 0.501 to 1 µM.

`O=C(NCCc1cccnc1)c1cn(Cc2cccc(Cl)c2)c2ccccc12` [Compound 195] had an IC50 of 0.501 to 1 µM.

In the case of `Cc1ccc(Cn2cc(C(=O)NCCc3ccc(Cl)c(F)c3)c3ccccc32)cc1` [Compound 196], the IC50 lay in the range of 0.501 to 1 µM.

Take `O=C(NCCc1ccc(C(F)(F)F)nc1)c1cn(Cc2ccc(Cl)cc2)c2ccccc12` [Compound 197]: the IC50 lay in the range of 0.501 to 1 µM.

Regarding `O=C(NCCc1ccc(Cl)c(F)c1)c1cn(Cc2ccc(F)cc2)c2ccccc12` [Compound 198], the IC50 lay in the range of 0.501 to 1 µM.

`O=C(NCCc1cccc(F)c1)c1cn(Cc2cccc(F)c2)c2ccccc12` [Compound 199]: the IC50 is 0.501 to 1 µM.

Turning to `O=C(NCCc1cccc(OC(F)(F)F)c1)c1cn(Cc2ccc(Cl)cc2)c2ccccc12` [Compound 200], the IC50 fell in the range of 1 to 2.5 µM.

`Cc1cccc(Cn2cc(C(=O)NCCc3cccnc3)c3ccccc32)c1` [Compound 201] returned an IC50 of 1 to 2.5 µM.

Turning to `Cc1ccc(CCNC(=O)c2cn(Cc3cccc(F)c3)c3ccccc23)cn1` [Compound 202], the IC50 fell in the range of 1 to 2.5 µM.

With `COc1ncccc1CCNC(=O)c1cn(Cc2cccc(F)c2)c2ccccc12` [Compound 203], the IC50 was in the range of 1 to 2.5 µM.

Turning to `O=C(NCCCc1ccc(Cl)c(F)c1)c1cn(Cc2ccc(Cl)cc2)c2ccccc12` [Compound 204], the IC50 fell in the range of 1 to 2.5 µM.

The molecule `O=C(NCCc1ccc(Cl)c(F)c1)c1cn(Cc2ccc(Cl)cc2)c2ccccc12` [Compound 205] yielded an IC50 of 1 to 2.5 µM.

In turn, `O=C(NCCc1cccc(C(F)(F)F)c1)c1cn(Cc2ccc(Cl)cc2)c2ccccc12` [Compound 206] showed an IC50 of 1 to 2.5 µM.

The molecule `Cc1cnc(CCNC(=O)c2cn(Cc3ccc(Cl)cc3)c3ccccc23)nc1` [Compound 207] returned an IC50 of 1 to 2.5 µM.

For `O=C(NCCc1ccc(C(F)(F)F)cc1)c1cn(Cc2ccc(Cl)cc2)c2ccccc12` [Compound 208], the IC50 is 1 to 2.5 µM.

In the case of `O=C(NCCc1ccc(Cl)c(F)c1)c1cn(Cc2ccc(C(F)(F)F)cc2)c2ccccc12` [Compound 209], the IC50 lay in the range of 1 to 2.5 µM.

As to `O=C(NCCc1ccc(Cl)c(F)c1)c1cn(Cc2cccc(F)c2)c2ccccc12` [Compound 210], the IC50 fell in the range of 1 to 2.5 µM.

Molecule `COc1cccc(Cn2cc(C(=O)NCCc3cccnc3)c3ccccc32)c1` [Compound 211] showed an IC50 of 1 to 2.5 µM.

Regarding `Cc1ncccc1CCNC(=O)c1cn(Cc2cccc(F)c2)c2ccccc12` [Compound 212], the IC50 was in the range of 1 to 2.5 µM.

`CC(C)(CNC(=O)c1cn(Cc2cccc(F)c2)c2ccccc12)c1cccnc1` [Compound 213] had an IC50 of 1 to 2.5 µM.

Molecule `O=C(NCCc1ccccn1)c1cn(Cc2cccc(F)c2)c2ccccc12` [Compound 214] came in with an IC50 of 1 to 2.5 µM.

In the case of `O=C(NCCc1cncnc1)c1cn(Cc2ccc(Cl)cc2)c2ccccc12` [Compound 215], the IC50 fell in the range of 1 to 2.5 µM.

In turn, `COc1ccc(CCNC(=O)c2cn(Cc3cccc(F)c3)c3ccccc23)cn1` [Compound 216] gave an IC50 of 1 to 2.5 µM.

In the case of `O=C(NCCc1ccccn1)c1cn(CCc2ccc(Cl)cc2)c2ccccc12` [Compound 217], under setting [1], the IC50 is 1 to 2.5 µM.

`COc1ccc(Cn2cc(C(=O)NCCc3ccc(Cl)c(F)c3)c3ccccc32)cc1` [Compound 218] registered an IC50 of 1 to 2.5 µM.

In turn, `O=C(NCCc1ccncc1)c1cn(Cc2cccc(F)c2)c2ccccc12` [Compound 219] registered an IC50 of 1 to 2.5 µM.

`O=C(NCCc1ccc(=O)[nH]c1)c1cn(Cc2ccc(Cl)cc2)c2ccccc12` [Compound 220] came in with an IC50 of 1 to 2.5 µM.

`COc1ccccc1CCNC(=O)c1cn(Cc2cccc(F)c2)c2ccccc12` [Compound 221] gave an IC50 of 1 to 2.5 µM.

Molecule `Cc1cccc(Cn2cc(C(=O)NCCc3ccc(Cl)c(F)c3)c3ccccc32)c1` [Compound 222] yielded an IC50 of 1 to 2.5 µM.

Consider `O=C(NCCc1ccc(Cl)c(F)c1)c1cn(CCN2CCC(F)(F)CC2)c2ccccc12` [Compound 223], for which the IC50 was 1 to 2.5 µM.

For the molecule `O=C(NCCc1ccc(Cl)c(F)c1)c1cn(Cc2ccccc2F)c2ccccc12` [Compound 224], the IC50 was > 2.5 µM.

Regarding `Cc1ccccc1Cn1cc(C(=O)NCCc2cccnc2)c2ccccc21` [Compound 225], the IC50 was > 2.5 µM.

In the case of `COc1ccccc1Cn1cc(C(=O)NCCc2cccnc2)c2ccccc21` [Compound 226], the IC50 is > 2.5 µM.

As for `Cc1c(C(=O)NCCc2cccnc2)c2ccccc2n1Cc1ccc(Cl)cc1` [Compound 227], the IC50 was > 2.5 µM.

In the case of `COC1CN(CCn2cc(C(=O)NCCc3ccccn3)c3ccccc32)C1` [Compound 228], the IC50 was > 2.5 µM.

As to `Cc1ccc(Cn2cc(C(=O)NCc3ccccn3)c3ccccc32)cc1` [Compound 229], the IC50 was > 2.5 µM.

With `O=C(NCC1(c2cccnc2)CC1)c1cn(Cc2ccc(Cl)cc2)c2ccccc12` [Compound 230], the IC50 under setting [1] was > 2.5 µM.

In the case of `Cc1ccc(Cn2cc(C(=O)NCc3ccncc3)c3ccccc32)cc1` [Compound 231], the IC50 was > 2.5 µM.

For the molecule `CC(=O)c1cccc(Cn2cc(C(=O)NCCc3cccnc3)c3ccccc32)c1` [Compound 232], the IC50 was > 2.5 µM.

For the molecule `CC(C)(CNC(=O)c1cn(Cc2ccc(Cl)cc2)c2ccccc12)c1cccnc1` [Compound 233], the IC50 was > 2.5 µM.

Turning to `O=C(NCCc1ccccn1)c1cn(Cc2ccccc2)c2ccccc12` [Compound 234], the IC50 is > 2.5 µM.

As for `N#Cc1ccccc1Cn1cc(C(=O)NCCc2ccc(Cl)c(F)c2)c2ccccc21` [Compound 235], the IC50 was > 2.5 µM.

For the molecule `O=C(NCCc1ccc(F)cc1)c1cn(Cc2cccc(F)c2)c2ccccc12` [Compound 236], the IC50 is > 2.5 µM.

Consider `O=C(CS(=O)(=O)c1cn(Cc2ccc(Cl)cc2)c2ccccc12)Nc1ccccc1F` [Compound 237, 2-((1-(4-chlorobenzyl)-1H-indol-3-yl)sulfonyl)-N-(2-fluorophenyl)acetamide], for which, under setting [1], the IC50 was in the range of 0.1 to 0.5 µM.

`COc1cccc(NC(=O)CS(=O)(=O)c2cn(Cc3ccc(Cl)cc3)c3ccccc23)c1` [Compound 238]: the IC50 under setting [1] was 0.1 to 0.5 µM.

For `O=C(CS(=O)(=O)c1cn(Cc2ccc(Cl)cc2)c2ccccc12)Nc1cccnc1` [Compound 239], the IC50 under setting [1] fell in the range of 0.1 to 0.5 µM.

As to `O=C(CS(=O)(=O)c1cn(Cc2ccc(Cl)cc2)c2ccccc12)Nc1cccc(F)c1` [Compound 240], under setting [1], the IC50 lay within 0.1 to 0.5 µM.

As for `O=C(CS(=O)(=O)c1cn(Cc2ccc(Cl)cc2)c2ccccc12)Nc1ccccn1` [Compound 241], under setting [1], the IC50 was 0.1 to 0.5 µM.

With `O=C(CS(=O)(=O)c1cn(Cc2ccc(Cl)cc2)c2ccccc12)Nc1ccccc1` [Compound 242], the IC50 under setting [1] lay in the range of 0.501 to 1 µM.

In the case of `Cc1cccc(NC(=O)CS(=O)(=O)c2cn(Cc3ccc(Cl)cc3)c3ccccc23)c1` [Compound 243], the IC50 under setting [1] was in the range of 0.501 to 1 µM.

On to `O=C(CS(=O)(=O)c1cn(Cc2ccc(Cl)cc2)c2ccccc12)Nc1ccccc1Cl` [Compound 244], for which the IC50 under setting [1] fell in the range of 0.501 to 1 µM.

Consider `O=C(CS(=O)(=O)c1cn(Cc2ccc(Cl)cc2)c2ccccc12)Nc1ccc(F)cc1` [Compound 245], for which the IC50 under setting [1] fell in the range of 0.501 to 1 µM.

With `COc1ccccc1NC(=O)CS(=O)(=O)c1cn(Cc2ccc(Cl)cc2)c2ccccc12` [Compound 246], the IC50 under setting [1] lay within 1 to 2.5 µM.

`Cc1ccc(NC(=O)CS(=O)(=O)c2cn(Cc3ccc(Cl)cc3)c3ccccc23)cc1` [Compound 247]: under setting [1], the IC50 is 1 to 2.5 µM.

As for `CC(C)NC(=O)CS(=O)(=O)c1cn(Cc2ccc(Cl)cc2)c2ccccc12` [Compound 248], under setting [1], the IC50 was in the range of 1 to 2.5 µM.

Turning to `O=C(CS(=O)(=O)c1cn(Cc2ccc(Cl)cc2)c2ccccc12)Nc1ccc(Cl)c(Cl)c1` [Compound 249], the IC50 under setting [1] was in the range of 1 to 2.5 µM.

With `CNC(=O)CS(=O)(=O)c1cn(Cc2ccc(Cl)cc2)c2ccccc12` [Compound 250], the IC50 under setting [1] is 1 to 2.5 µM.

As to `O=C(CS(=O)(=O)c1cn(Cc2ccc(Cl)cc2)c2ccccc12)Nc1ccc(Cl)cc1Cl` [Compound 251], the IC50 under setting [1] was 1 to 2.5 µM.

`CN(C)C(=O)CS(=O)(=O)c1cn(Cc2ccc(Cl)cc2)c2ccccc12` [Compound 252]: the IC50 under setting [1] lay in the range of 1 to 2.5 µM.

For the molecule `O=C(CS(=O)(=O)c1cn(Cc2ccc(Cl)cc2)c2ccccc12)Nc1cccc(Cl)c1` [Compound 253], the IC50 under setting [1] fell in the range of 1 to 2.5 µM.

Consider `Cc1cccc(NC(=O)CS(=O)(=O)c2cn(CCN3CCC(F)(F)C3)c3ccccc23)c1` [Compound 254], for which, under setting [1], the IC50 was in the range of 1 to 2.5 µM.

In the case of `Cc1ccccc1NC(=O)CS(=O)(=O)c1cn(Cc2ccc(Cl)cc2)c2ccccc12` [Compound 255], under setting [1], the IC50 was > 2.5 µM.

For `O=C(CS(=O)(=O)c1cn(Cc2ccc(Cl)cc2)c2ccccc12)Nc1ccc(Cl)cc1` [Compound 256], the IC50 under setting [1] is > 2.5 µM.

As to `COc1ccc(C)c(S(=O)(=O)NC(=O)c2nn(Cc3cccc(F)c3)c3ccccc23)c1` [Compound 257], the IC50 under setting [1] is > 2.5 µM.

In the case of `Cc1ccccc1S(=O)(=O)NC(=O)c1nn(Cc2ccc(OC(F)F)cc2)c2ccccc12` [Compound 258], the IC50 lay within 0.1 to 0.5 µM.
